The record followed here is article PMC6166229 (Journal of Medicinal Chemistry, 2018).

Structures are written as SMILES.

Data set [1] is described as follows: Microsomal clearance, human liver microsomes. The data set is classed as in vitro ADME. Conditions: both, pH 7.4, Clint human.
Data set [2] is described as follows: Dog blood pharmacokinetics. The format is in vivo. Conditions: whole blood, iv, 1 mg/kg.
A further data set concerns the target T1, MPS1 (Homo sapiens, UniProt P33981).
T1 sequence (P33981 1-857): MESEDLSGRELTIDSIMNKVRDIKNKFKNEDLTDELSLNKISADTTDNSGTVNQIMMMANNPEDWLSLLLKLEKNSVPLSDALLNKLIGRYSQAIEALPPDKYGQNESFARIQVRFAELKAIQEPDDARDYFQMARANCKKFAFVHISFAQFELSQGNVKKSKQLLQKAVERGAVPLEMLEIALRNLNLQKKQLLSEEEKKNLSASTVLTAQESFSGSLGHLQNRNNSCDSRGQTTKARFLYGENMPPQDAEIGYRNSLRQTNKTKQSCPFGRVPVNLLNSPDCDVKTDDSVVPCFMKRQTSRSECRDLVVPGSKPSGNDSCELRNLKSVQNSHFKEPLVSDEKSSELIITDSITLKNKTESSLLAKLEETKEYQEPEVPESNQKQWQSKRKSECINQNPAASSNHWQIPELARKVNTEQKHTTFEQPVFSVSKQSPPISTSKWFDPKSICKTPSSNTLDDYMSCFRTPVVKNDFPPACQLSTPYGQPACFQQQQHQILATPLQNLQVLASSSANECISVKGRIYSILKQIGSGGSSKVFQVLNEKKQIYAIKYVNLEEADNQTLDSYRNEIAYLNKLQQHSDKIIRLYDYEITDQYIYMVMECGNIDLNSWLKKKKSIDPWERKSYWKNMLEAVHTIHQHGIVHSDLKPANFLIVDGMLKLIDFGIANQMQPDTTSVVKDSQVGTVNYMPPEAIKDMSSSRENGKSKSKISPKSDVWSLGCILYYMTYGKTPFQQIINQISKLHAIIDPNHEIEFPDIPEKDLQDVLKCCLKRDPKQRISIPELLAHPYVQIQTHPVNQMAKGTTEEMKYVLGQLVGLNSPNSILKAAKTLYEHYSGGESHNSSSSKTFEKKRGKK
The data set is classed as biochemical. The following applies: 2,2-dimethylazetidine 48 compared with neopentyl-like analogue (47).

With `COc1cc(-c2cnc(C)n2C)ccc1Nc1ncc2ccnc(NCC(C)(C)C)c2n1` [Compound 16, N^2-(4-(1,2-Dimethyl-1H-imidazol-5-yl)-2-methoxyphenyl)-N^8-neopentylpyrido[3,4-d]pyrimidine-2,8-diamine], the microsomal CLint at 1 μM in data set [1] is 79 µL/min/mg.

With `CCOc1cc(-c2nncn2C)ccc1Nc1ncc2cc(C)nc(NCC(C)(C)C)c2n1` [Compound 36, N^2-(2-Ethoxy-4-(4-methyl-4H-1,2,4-triazol-3-yl)phenyl)-6-methyl-N^8-neopentylpyrido[3,4-d]pyrimidine-2,8-diamine], in data set [2], the clearance was 1.2 mL/min/kg.

`CCOc1cc(-c2nncn2C)ccc1Nc1ncc2cc(C)nc(N3CCC3(C)C)c2n1` [Compound 48, 8-(2,2-Dimethylazetidin-1-yl)-N-(2-ethoxy-4-(4-methyl-4H-1,2,4-triazol-3-yl)phenyl)-6-methylpyrido[3,4-d]pyrimidin-2-amine]: the “fold higher IC50” value at MPS1 is reported as 40 fold.
